Assay results as given in patent publication US7638515B2, “Tetrahydronaphthalene derivatives, process for their production and their use as anti-inflammatory agents” (Bayer Schering Pharma Aktiengesellschaft, priority 2003, dated 2009).

Biological target: T1, progesterone receptor (PR) (Homo sapiens, UniProt P06401)
T1 construct: made in house
T1 sequence (P06401 1-933): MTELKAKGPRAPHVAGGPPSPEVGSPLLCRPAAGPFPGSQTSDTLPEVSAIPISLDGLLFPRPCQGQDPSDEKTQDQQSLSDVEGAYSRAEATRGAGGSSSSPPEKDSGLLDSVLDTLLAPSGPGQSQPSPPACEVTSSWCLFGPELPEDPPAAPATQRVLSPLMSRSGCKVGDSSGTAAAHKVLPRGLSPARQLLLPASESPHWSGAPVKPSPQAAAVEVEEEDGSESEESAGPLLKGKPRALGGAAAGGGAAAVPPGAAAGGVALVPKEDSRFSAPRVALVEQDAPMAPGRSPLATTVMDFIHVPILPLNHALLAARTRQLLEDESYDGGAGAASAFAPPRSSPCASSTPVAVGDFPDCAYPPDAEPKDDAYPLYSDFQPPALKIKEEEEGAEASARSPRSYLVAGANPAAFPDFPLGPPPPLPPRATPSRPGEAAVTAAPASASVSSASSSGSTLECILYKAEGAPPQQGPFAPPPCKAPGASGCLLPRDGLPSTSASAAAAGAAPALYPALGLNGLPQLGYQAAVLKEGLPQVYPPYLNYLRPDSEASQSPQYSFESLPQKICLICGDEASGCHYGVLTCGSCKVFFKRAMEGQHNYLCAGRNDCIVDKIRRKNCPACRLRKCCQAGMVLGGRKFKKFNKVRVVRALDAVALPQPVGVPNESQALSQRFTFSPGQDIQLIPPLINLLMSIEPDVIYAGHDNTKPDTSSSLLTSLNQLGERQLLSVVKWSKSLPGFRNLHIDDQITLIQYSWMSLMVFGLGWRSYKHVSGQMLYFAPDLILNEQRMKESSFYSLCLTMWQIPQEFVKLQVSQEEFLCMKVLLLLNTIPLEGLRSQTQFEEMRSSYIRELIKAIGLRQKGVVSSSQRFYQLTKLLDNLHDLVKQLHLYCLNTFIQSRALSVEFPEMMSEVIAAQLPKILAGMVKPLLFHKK
Assay: Binding to the progesterone receptor, recombinantly produced receptor
Details: not given
Source text: (§1) The binding of the substances to the glucocorticoid receptor (GR) and other steroid-hormone receptors (mineral corticoid receptor (MR), progesterone receptor (PR) and androgen receptor (AR)) is examined with the aid of recombinantly produced receptors. Cytosol preparations of Sf9 cells, which had been infected with recombinant baculoviruses that code for the GR, are used for the binding studies. In comparison to the reference substance [^3H]-dexamethasone, the substances show a high affinity to the GR.

Compound `CC1(C)CC(O)(C(F)(F)F)C(Nc2cccc3[nH]ncc23)c2cc(F)cc(O)c21` (centres unmarked) [Example 49, 7-Fluoro-1-[(1H-indazol-4-yl)amino]-4,4-dimethyl-2-(trifluoromethyl)-1,2,3,4-tetrahydronaphthalene-2,5-diol] has an IC50 of 460 nM.

System: secretion of cytokine IL-8 in the human monocyte cell line THP-1
Assay: Inhibition of LPS-triggered secretion of cytokine IL-8 in THP-1 cells (ELISA)
Assay type: cell-based
Details: THP-1, supernatant ELISA, read-out: IC50(IL8)
Description: The concentration of the cytokines was determined in the supernatant by means of commercially available ELISA kits.

Work on `CC1(C)CC(O)(C(F)(F)F)C(Nc2cccc3[nH]ncc23)c2cc(F)cc(O)c21` (centres unmarked) [Example 49, 7-Fluoro-1-[(1H-indazol-4-yl)amino]-4,4-dimethyl-2-(trifluoromethyl)-1,2,3,4-tetrahydronaphthalene-2,5-diol] yielded an IC50 of 19 nM.

Biological target: T2, glucocorticoid receptor (GR) (Homo sapiens, UniProt P04150)
T2 construct: made in house; host or cells: Sf9 cells infected with recombinant baculovirus (cytosol preparation)
T2 sequence (P04150 1-777): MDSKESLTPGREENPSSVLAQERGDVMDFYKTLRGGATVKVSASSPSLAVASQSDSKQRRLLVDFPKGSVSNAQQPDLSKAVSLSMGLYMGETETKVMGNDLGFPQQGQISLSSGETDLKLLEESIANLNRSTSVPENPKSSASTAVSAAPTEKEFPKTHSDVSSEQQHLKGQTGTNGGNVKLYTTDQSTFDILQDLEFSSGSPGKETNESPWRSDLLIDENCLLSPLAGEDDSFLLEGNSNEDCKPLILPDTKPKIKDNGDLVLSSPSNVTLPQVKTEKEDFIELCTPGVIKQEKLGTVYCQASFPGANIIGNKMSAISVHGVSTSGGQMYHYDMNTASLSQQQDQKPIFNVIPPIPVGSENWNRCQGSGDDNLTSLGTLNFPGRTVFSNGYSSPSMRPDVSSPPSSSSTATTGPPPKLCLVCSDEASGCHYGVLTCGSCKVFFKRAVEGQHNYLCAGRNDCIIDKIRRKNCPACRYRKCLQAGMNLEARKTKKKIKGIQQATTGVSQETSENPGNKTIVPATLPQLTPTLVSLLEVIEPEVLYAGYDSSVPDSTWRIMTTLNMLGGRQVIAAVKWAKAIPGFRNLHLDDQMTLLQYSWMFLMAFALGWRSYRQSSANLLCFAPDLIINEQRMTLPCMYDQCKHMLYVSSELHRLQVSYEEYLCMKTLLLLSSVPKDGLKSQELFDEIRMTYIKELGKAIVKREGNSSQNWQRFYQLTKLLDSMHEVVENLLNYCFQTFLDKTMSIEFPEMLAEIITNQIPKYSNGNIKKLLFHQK
Assay: Binding to the glucocorticoid receptor, recombinantly produced receptor, cytosol preparations of Sf9 cells
Details: reference substance [3H]-dexamethasone
Source text: as §1

For `CC1(C)CC(O)(C(F)(F)F)C(Nc2cccc3[nH]ncc23)c2cc(F)cc(O)c21` (centres unmarked) [Example 49, 7-Fluoro-1-[(1H-indazol-4-yl)amino]-4,4-dimethyl-2-(trifluoromethyl)-1,2,3,4-tetrahydronaphthalene-2,5-diol], the IC50 was 95 nM.

System: not given
Assay: not given
Details: not given

Compared with `CC1(C)CC(O)(C(F)(F)F)C(Nc2cccc3[nH]ncc23)c2c(F)ccc(F)c21` (racemic) [Example 105, Rac.-5,8-Difluoro-1-[(1H-indazol-4-yl)amino]-4,4-dimethyl-2-(trifluoromethyl)-1,2,3,4-tetrahydronaphthalen-2-ol], `CC1(C)CC(O)(C(F)(F)F)C(Nc2cccc3c(=O)[nH]ncc23)c2cc(O)ccc21` (centres unmarked) [Example 141, 5-(2,7-Dihydroxy-4,4-dimethyl-2-(trifluoromethyl)-1,2,3,4-tetrahydronaphthalen-1-ylamino)-2H-phthalazin-1-one] is lower in melting point: 209 to 221 °C for the first, 116 °C for the second.

Going from `COc1ccc2c(c1)C(Nc1ccc(F)c3nc(C)ncc13)C(O)(C(F)(F)F)CC2(C)C` (centres unmarked) [Example 135, 1-(8-Fluoro-2-methylquinazolin-5-ylamino)-7-methoxy-4,4-dimethyl-2-(trifluoromethyl)-1,2,3,4-tetrahydronaphthalen-2-ol] to `COc1ccc2c(c1)C(Nc1cccc3nc(C)ccc13)C(O)(C(F)(F)F)CC2(C)C` (centres unmarked) [Example 139, 7-Methoxy-4,4-dimethyl-1-(2-methylquinolin-5-ylamino)-2-(trifluoromethyl)-1,2,3,4-tetrahydronaphthalen-2-ol], the melting point falls from 97 °C to 85 °C.

First: COc1ccc2c(c1)C(Nc1cccc3c(=O)[nH]ncc13)C(O)(C(F)(F)F)CC2(C)C (centres unmarked) [Example 138, 5-(2-Hydroxy-7-methoxy-4,4-dimethyl-2-(trifluoromethyl)-1,2,3,4-tetrahydronaphthalen-1-ylamino)-2H-phthalazin-1-one]
Second: COc1ccc2c(c1)C(Nc1cccc3c(=O)[nH]ccc13)C(O)(C(F)(F)F)CC2(C)C (centres unmarked) [Example 137, 5-(2-Hydroxy-7-methoxy-4,4-dimethyl-2-(trifluoromethyl)-1,2,3,4-tetrahydronaphthalen-1-ylamino)-2H-isoquinolin-1-one]
The melting point of the first is higher: 197 °C for the first, 112 °C for the second.

First: COc1cccc2c1CCC(O)(C(F)(F)F)C2Nc1cccc2[nH]c(=O)ccc12 (centres unmarked) [Example 144, 5-(2-Hydroxy-5-methoxy-2-(trifluoromethyl)-1,2,3,4-tetrahydronaphthalen-1-ylamino)-1H-quinolin-2-one]
Second: COc1ccc2c(c1)C(Nc1cccc3[nH]c(=O)ccc13)C(O)(C(F)(F)F)CC2(C)C (centres unmarked) [Example 136, 5-(2-Hydroxy-7-methoxy-4,4-dimethyl-2-(trifluoromethyl)-1,2,3,4-tetrahydronaphthalen-1-ylamino)-1H-quinolin-2-one]
The melting point of the first is higher: 228 °C for the first, 128 °C for the second.

Going from `Cc1ccc2c(NC3c4cc(O)ccc4C(C)(C)CC3(O)C(F)(F)F)cccc2n1` (centres unmarked) [Example 140, 4,4-Dimethyl-1-(2-methylquinolin-5-ylamino)-2-(trifluoromethyl)-1,2,3,4-tetrahydronaphthalene-2,7-diol] to `CC1(C)CC(O)(C(F)(F)F)C(Nc2cccc3[nH]c(=O)ccc23)c2cc(O)c(Cl)cc21` (centres unmarked) [Example 134, 5-(6-Chloro-2,7-dihydroxy-4,4-dimethyl-2-(trifluoromethyl)-1,2,3,4-tetrahydronaphthalen-1-ylamino)-1H-quinolin-2-one], the melting point rises from 127 °C to 158 °C.

With `COc1cccc2c1CCC(O)(C(F)(F)F)C2Nc1ccc(F)c2nc(C)ncc12` (centres unmarked) [Example 145, 1-(8-Fluoro-2-methylquinazolin-5-ylamino)-5-methoxy-2-(trifluoromethyl)-1,2,3,4-tetrahydro-naphthalen-2-ol] the melting point was 132 °C.
